Measured values reported in ChEMBL document CHEMBL6121057, “Discovery of an Orally Bioavailable STING Inhibitor with In Vivo Anti-Inflammatory Activity in Mice with STING-Mediated Inflammation” (J Med Chem, 2025).

Assays:
[1] = Metabolic stability in human liver microsomes assessed as intrinsic clearance; format: ADME, Microsome; conditions: read-out: CLH
[2] = Metabolic stability in human liver microsomes assessed as half life; format: ADME, Microsome

`O=C(Nc1ccc(C(F)(F)F)cc1)Nc1c[nH]c2ccc(F)cc12` gave a CLint scaled [1] of 41 mL/min/kg and a half-life [2] of 30.4 min.
